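Method: 48-hour compound exposure of cells in 96-well plates, five concentrations, linear interpolation of endpoints. TGI is the concentration that stops growth completely.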
Columns and labels:
Assay in all cases: NCI-60 cell line screen, 48 h
[1] = system: ACHN renal
[2] = system: HCT-116 colon
[3] = system: SK-OV-3 ovarian
[4] = system: NCI-H460 lung
[5] = system: SNB-19 CNS
[6] = system: OVCAR-4 ovarian
[7] = system: HT29 colon
[8] = system: HS 578T breast
[9] = system: SW-620 colon
[10] = system: MDA-N
[11] = system: 786-0 renal
[12] = system: SF-295 CNS
[13] = system: DU-145 prostate
[14] = system: T-47D breast
[15] = system: M14 melanoma
[16] = system: NCI-H23 lung
[17] = system: NCI-H522 lung
[18] = system: SF-268 CNS
[19] = system: LOX IMVI melanoma
[20] = system: SK-MEL-5 melanoma
[21] = system: SK-MEL-2 melanoma
[22] = system: RXF 393 renal
[23] = system: COLO 205 colon
[24] = system: HL-60(TB) leukemia
[25] = system: SNB-75 CNS
[26] = system: SR leukemia
[27] = system: TK-10 renal
[28] = system: HOP-62 NSCLC
[29] = system: OVCAR-5 ovarian
[30] = system: NCI-H226 lung
[31] = system: UO-31 renal
[32] = system: OVCAR-3 ovarian
[33] = system: HOP-92 NSCLC
[34] = system: EKVX NSCLC
[35] = system: A549 NSCLC
[36] = system: MCF7 breast
[37] = system: UACC-257 melanoma
[38] = system: OVCAR-8 ovarian
[39] = system: PC-3 prostate
[40] = system: BT-549 breast
[41] = system: MDA-MB-231 breast
[42] = system: U251 CNS
[43] = system: HCC-2998 colon
[44] = system: A498 renal
[45] = system: UACC-62 melanoma
[46] = system: K-562 leukemia
[47] = system: NCI/ADR-RES ovarian
[48] = system: SF-539 CNS
[49] = system: CCRF-CEM leukemia
[50] = system: MOLT-4 leukemia
[51] = system: CAKI-1 renal
[52] = system: IGROV1 ovarian
[53] = system: KM12 colon
[54] = system: SN12C renal
[55] = system: MALME-3M melanoma
[56] = system: RPMI-8226 leukemia
[57] = system: MDA-MB-435
[58] = system: SK-MEL-28 melanoma
[59] = system: HCT-15 colon

Measured: TGI

COc1cc2c(c(OC)c1OC)-c1ccc(SC)c(=O)cc1[C@@H](OC(=O)c1ccncc1)CC2
< 0.01 µM: [7] | [12] | [30] | [47] | [48]
39.5 µM: [17]
> 32.1 µM: [45]
55.3 µM: [27]
22.8 µM: [40]
> 56.5 µM: [8]
23.2 µM: [51]
56.7 µM: [15]
> 40.3 µM: [11]
52.6 µM: [31]
24 µM: [37]
15.4 µM: [20]
43.7 µM: [3]
46.8 µM: [49]
11.6 µM: [43]
21.4 µM: [44]
> 82.9 µM: [22]
11.2 µM: [4]
> 46.8 µM: [52]
> 39.1 µM: [26]
> 62.7 µM: [13]
31.2 µM: [1]
> 35 µM: [2]
> 35.7 µM: [19]
49.3 µM: [18]
21.9 µM: [32]
not listed: [53] | [54] | [55] | [56] | [57] | [58] | [59]
> 100 µM: all other assays above

O=c1[nH]nc(Cc2ccccc2)n1O
not listed: [4] | [15] | [21] | [22] | [25] | [29] | [39] | [43] | [59]
> 100 µM: all other assays above

C[C@H]1CC[C@@H]2[C@@H](C)C[C@H]3[C@@H]4C(C)(C)OC(=O)[C@]4(C)C(=O)[C@@]23C1=O
68.1 µM: [14]
not listed: [21] | [22] | [26] | [31] | [39] | [42]
> 100 µM: all other assays above

CCCCOC(=O)NC(c1ccccc1)C(O)C(=O)OC1C[C@@]2(O)C(OC(=O)c3ccccc3)C3[C@](C)(C(=O)[C@H](OC(C)=O)C(=C1C)C2(C)C)[C@@H](O)C[C@H]1OC[C@@]31OC(C)=O (stereo partly specified)
0.0241 µM: [57]
> 6.5 µM: [47]
0.0175 µM: [48]
> 6.88 µM: [32]
0.0113 µM: [10]
0.595 µM: [43]
0.0755 µM: [22]
6.81 µM: [7]
0.0663 µM: [44]
> 7.96 µM: [56]
0.0469 µM: [8]
> 9.14 µM: [50]
0.00741 µM: [24]
not listed: [13] | [17] | [21] | [30] | [37] | [51] | [55] | [58]
> 10 µM: all other assays above

COC(=O)C(=O)C(C(=O)OC)C(=O)C(=O)Nc1ccccc1C(N)=O (stereo unspecified)
not listed: [4] | [13] | [23] | [46]
> 100 µM: all other assays above
